Measurements reported in ChEMBL document CHEMBL5518233, “Design and Synthesis of 3-(2H-Chromen-3-yl)-5-aryl-1,2,4-oxadiazole Derivatives as Novel Toll-like Receptor 2/1 Agonists That Inhibit Lung Cancer In Vitro and In Vivo” (J Med Chem, 2024).
Where a SMILES comes first, the peptide text is derived from it. The star is where a group is joined. X1 = CCCCCCCCCCCCCCCC(=O)OCC(C*)OC(=O)CCCCCCCCCCCCCCC; Palmitoyl = CCCCCCCCCCCCCCCC(=O)*

What was measured:
[1] = tested on: A549; experiment: Antitumor activity against human A549 cells xenografted with BALB/c mouse assessed as tumor growth inhibition at 5 mg/kg,ip administrated every 2 days for 30 days relative to control; format: functional; conditions: A549, 720 h, time 30 day, read-out: TGI
[2] = Antitumor activity against mouse Lewis lung carcinoma cell line xenografted with C57BL/6J mouse assessed as tumor growth inhibition at 5 mg/kg,ip administrated every 2 days for 21 days relative to control; format: functional; conditions: 504 h, time 21 day, read-out: TGI
[3] = molecular target: T1, Toll-like receptor 1/2 (Homo sapiens, UniProt O60603+Q15399); experiment: Agonist activity at human TLR2/TLR1 transfected in HEK293T cells incubated for 24 hrs by dual luciferase reporter gene assay; format: cell-based
[4] = molecular target: T1, Toll-like receptor 1/2; experiment: Agonist activity at human TLR2/TLR1 transfected in HEK293T cells assessed as relative light unit at 100 ng/ml incubated for 24 hrs by dual luciferase reporter gene assay; format: cell-based; conditions: filed as agonist

T1 sequence (O60603 whole entry): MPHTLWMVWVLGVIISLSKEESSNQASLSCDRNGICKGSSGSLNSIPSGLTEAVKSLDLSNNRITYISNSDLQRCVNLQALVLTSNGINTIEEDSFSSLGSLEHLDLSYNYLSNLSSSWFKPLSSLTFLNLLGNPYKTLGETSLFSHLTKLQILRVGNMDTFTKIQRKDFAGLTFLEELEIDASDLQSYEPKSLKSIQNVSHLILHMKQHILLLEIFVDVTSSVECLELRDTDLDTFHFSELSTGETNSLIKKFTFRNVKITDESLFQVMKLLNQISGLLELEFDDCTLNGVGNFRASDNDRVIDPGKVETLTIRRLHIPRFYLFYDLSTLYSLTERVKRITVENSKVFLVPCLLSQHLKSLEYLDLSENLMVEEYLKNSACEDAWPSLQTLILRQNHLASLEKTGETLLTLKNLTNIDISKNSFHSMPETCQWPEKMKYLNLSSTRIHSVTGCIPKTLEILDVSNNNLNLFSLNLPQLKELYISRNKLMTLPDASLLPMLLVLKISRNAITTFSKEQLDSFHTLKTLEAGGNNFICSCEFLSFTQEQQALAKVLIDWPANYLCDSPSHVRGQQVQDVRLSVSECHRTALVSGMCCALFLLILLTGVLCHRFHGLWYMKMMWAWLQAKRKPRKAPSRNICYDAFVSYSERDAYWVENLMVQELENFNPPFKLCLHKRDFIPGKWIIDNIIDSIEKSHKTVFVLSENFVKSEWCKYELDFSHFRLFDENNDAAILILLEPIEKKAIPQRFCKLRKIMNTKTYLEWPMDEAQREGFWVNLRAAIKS
T1 sequence (Q15399 whole entry): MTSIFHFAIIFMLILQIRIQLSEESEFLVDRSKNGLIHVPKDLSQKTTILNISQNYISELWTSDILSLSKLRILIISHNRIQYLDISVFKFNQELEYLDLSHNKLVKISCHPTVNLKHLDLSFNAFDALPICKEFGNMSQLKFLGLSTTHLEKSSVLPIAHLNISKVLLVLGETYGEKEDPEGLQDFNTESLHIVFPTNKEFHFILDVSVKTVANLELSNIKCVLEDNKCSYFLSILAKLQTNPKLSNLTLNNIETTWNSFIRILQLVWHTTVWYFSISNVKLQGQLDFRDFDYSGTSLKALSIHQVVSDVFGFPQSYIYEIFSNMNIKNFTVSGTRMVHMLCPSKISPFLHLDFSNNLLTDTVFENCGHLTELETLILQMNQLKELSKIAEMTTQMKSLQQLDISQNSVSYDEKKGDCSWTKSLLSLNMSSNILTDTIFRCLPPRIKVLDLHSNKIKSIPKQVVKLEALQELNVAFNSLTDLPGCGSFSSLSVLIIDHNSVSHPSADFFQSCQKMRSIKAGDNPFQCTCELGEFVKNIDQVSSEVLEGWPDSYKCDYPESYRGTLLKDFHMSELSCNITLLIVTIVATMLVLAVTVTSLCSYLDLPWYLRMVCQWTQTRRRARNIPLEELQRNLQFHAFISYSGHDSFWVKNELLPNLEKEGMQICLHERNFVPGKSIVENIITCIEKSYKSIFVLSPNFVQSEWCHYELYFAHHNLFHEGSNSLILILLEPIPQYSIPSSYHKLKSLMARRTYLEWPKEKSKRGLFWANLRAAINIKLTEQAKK

Row | Compound | inhibition in vivo at 5 mg/kg [1] | inhibition in vivo at 5 mg/kg [2] | EC50 [3] | Activity [4]
1 | O=c1[nH]cc(F)c(=O)[nH]1 [FLUOROURACIL] | 77.5% | 79.4% |  | 
2 | CNc1ccc([N+](=O)[O-])cc1-n1cnc(-c2ccc(C(F)(F)F)cc2O)c1 |  | 63.5% | 0.035 µM | 
3 | O=[N+]([O-])c1ccc(F)c(-c2nc(C3=Cc4ccccc4OC3)no2)c1 |  |  | 0.0301 µM | 
4 | CCCCCCCCCCCCCCCC(=O)N[C@@H](CSCC(COC(=O)CCCCCCCCCCCCCCC)OC(=O)CCCCCCCCCCCCCCC)C(=O)N[C@@H](CO)C(=O)N[C@@H](CCCCN)C(=O)N[C@@H](CCCCN)C(=O)N[C@@H](CCCCN)C(=O)N[C@@H](CCCCN)C(=O)O (stereo partly specified) (Palmitoyl-C(X1)SKKKK-OH) |  |  |  | 7.95 RLU
